We go through 1 molecule from patent US20050256034A1, “Dioxolane analogs for improved inter-cellular delivery” (priority 2000, published 2005).

Common to all, as to assay type: cell-based
The target in data set [1] is T1, hENT1 (es) in DU145 cells (Homo sapiens, UniProt Q99808).
T1 construct: functional es-mediated transport (hENT1) in DU145 cells; endogenous in cells; host or cells: DU145 cells
T1 sequence (Q99808 1-456): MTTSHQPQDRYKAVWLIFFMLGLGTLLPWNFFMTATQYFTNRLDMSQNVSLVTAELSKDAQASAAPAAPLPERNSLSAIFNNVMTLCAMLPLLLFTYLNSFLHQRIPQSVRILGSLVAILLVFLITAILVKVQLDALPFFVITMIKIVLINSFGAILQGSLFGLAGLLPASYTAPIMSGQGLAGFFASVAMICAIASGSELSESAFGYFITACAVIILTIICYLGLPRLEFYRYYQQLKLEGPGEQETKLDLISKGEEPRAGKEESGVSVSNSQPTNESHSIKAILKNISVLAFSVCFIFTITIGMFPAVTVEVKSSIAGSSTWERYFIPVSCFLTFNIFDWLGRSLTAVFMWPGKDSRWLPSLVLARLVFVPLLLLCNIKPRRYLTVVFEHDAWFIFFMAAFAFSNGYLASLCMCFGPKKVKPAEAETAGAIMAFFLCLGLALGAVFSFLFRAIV
The data set can be described thus: Cellular uptake assay of 3H-labelled nucleoside, NT inhibitor and self-competition. Here is the method:
FIG. 2 Comparative uptake of 10 μM [^3H]troxacitabine (0-240 min) (Panel B) and 10 μM [^3H]D-uridine (0-6 min) (Panel A) in the presence (▴) or absence ( ? ) of the hENT1 inhibitor, 100 nM NBMPP, in DU145 cells.
Cancer Res., 56: 4187-4191.
(FIG. 2A). In contrast, low levels of [^3H]troxacitabine were taken up and uptake was not affected by the presence of NBMPR (FIG. 2B).
DU145 cells: This experiment is designed to show whether [^3H]L-troxacitabine (10 μM) is taken up by DU145 cells and if the rate of uptake is affected by the addition of high concentrations (1 mM) of non-radioactive troxacitabine.

The target of a further data set is T2, recombinant hCNT1 (Homo sapiens, UniProt O00337).
T2 construct: expressed in transfected cells; host or cells: HeLa cells, transient transfection with pcDNA3-hCNT1 (subcloned from pMHK2)
T2 sequence (O00337 1-649): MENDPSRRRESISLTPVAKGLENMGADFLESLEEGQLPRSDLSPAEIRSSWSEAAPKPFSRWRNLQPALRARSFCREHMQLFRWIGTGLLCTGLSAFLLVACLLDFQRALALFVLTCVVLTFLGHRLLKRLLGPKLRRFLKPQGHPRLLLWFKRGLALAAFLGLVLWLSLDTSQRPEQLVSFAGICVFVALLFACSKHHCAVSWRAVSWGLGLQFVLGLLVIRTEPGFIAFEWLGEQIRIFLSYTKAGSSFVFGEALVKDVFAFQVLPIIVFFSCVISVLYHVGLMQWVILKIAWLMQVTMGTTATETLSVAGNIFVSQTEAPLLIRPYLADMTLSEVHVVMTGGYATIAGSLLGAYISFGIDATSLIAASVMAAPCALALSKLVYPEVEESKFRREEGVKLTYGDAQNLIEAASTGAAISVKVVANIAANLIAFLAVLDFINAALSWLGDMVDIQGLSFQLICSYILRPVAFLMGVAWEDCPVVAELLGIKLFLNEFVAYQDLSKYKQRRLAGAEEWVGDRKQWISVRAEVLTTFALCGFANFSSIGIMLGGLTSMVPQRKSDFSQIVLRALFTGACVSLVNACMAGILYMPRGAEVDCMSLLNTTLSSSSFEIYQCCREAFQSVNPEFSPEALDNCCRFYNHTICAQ
Briefly: Uptake by recombinant transporter in transiently transfected HeLa cells. The note with it: 10 μM, 100 μM dilazep. Here is the method: Transport assays were conducted in the presence of the equilibrative transport inhibitor, 100 μM dilazep and either in the presence ( ? ) or absence (▴) of […].sodium, and compared to HeLa cells transiently transfected with the empty vector control plasmic (▾)
Expression plasmids encoding recombinant hCNT1 and hCNT2 are prepared using conventional methods. […] The expression vectors are separately introduced into actively proliferating HeLa cells, following conventional methods. See, e.g., Fang et al (1996).
Recombinant hCNT1 and hCNT2 were separately introduced into HeLa cells by transient transfection of pcDNA3 plasmids containing the coding sequences of the relevant nucleoside transporter protein. […] Uptake of 10 μM [:H]troxacitabine was not mediated either by hCNT1 or by hCNT2.

In another data set the target is T3, hCNT3 (Homo sapiens, UniProt Q9HAS3).
T3 construct: Troxacitabine uptake by cib-activity (hCNT3) in differentiated HL-60 cells; endogenous in cells; host or cells: differentiated HL-60 cells
T3 sequence (Q9HAS3 1-691): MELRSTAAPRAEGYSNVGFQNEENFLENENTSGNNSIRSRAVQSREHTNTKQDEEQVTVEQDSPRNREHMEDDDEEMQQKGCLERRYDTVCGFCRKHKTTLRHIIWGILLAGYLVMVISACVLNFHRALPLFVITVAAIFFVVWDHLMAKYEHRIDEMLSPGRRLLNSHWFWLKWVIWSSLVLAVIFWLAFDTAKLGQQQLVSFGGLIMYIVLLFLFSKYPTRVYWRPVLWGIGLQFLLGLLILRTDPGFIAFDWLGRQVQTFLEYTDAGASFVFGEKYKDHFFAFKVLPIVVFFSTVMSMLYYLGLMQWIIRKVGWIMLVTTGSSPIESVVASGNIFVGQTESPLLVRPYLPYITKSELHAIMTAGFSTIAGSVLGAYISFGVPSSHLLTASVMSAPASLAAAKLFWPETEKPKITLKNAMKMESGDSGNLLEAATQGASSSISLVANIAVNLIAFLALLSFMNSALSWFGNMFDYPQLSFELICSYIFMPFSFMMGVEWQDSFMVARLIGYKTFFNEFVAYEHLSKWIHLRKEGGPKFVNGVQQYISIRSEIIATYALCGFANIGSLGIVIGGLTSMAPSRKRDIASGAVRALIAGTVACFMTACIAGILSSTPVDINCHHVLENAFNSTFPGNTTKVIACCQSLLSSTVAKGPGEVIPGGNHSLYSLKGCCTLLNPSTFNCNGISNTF
Briefly: Inhibition of [3H]uridine uptake by cib-activity in differentiated HL-60 cells. The settings on record: 100-fold non-radioactive excess.

Consider `Nc1ccn([C@@H]2CO[C@H](CO)O2)c(=O)n1` [Troxacitabine, troxacitabine], for which, in data set [1] (10 μM labelled), the “effect of non-radioactive troxacitabine (1 mM) on uptake” value was “no significant effect”. The “effect of NBMPR on uptake” value in data set [1] (10 μM, 0-240 min, 100 nM NBMPR) is “not affected”. The rate of uptake entry in data set [1] (10 μM, short (0-30 s) and prolonged exposures (0-4 h)) is listed as “very slow”. Moreover, the “uptake mediated by hCNT1” value on recombinant hCNT1 is “not mediated”. Moreover, the “effect on [3H]uridine uptake by hCNT3” value at hCNT3 is recorded as “no effect on uridine uptake”.
